Test results published in patent US20230085307A1, “PYRIDAZINONE COMPOUND AND HERBICIDE” (NISSAN CHEMICAL CORPORATION, priority 2019, published 2023).

Legend:
late watergrass [1] = test: Test Example 1: herbicidal activity, application before weed generation under submerged conditions (Table 16, symbol A); type: in vivo, late watergrass (Echinochloa oryzicola); conditions: amount of applied herbicide 320 g/ha
Method in brief: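 Alluvial soil was flooded to 4 cm depth, weed seeds were sown mixed and 2.5-leaf rice seedlings were transplanted. On sowing day, the compound's emulsion, diluted in water to a set dose, was applied to the water surface. Plants grew at 25–30 °C and were scored 0–5 after three weeks.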

late watergrass [2] = test: Test Example 2: herbicidal activity, application during weed generation under submerged conditions (Table 17, symbol A); type: in vivo, late watergrass (Echinochloa oryzicola); conditions: AAH 320 g/ha; application during weed generation, submerged conditions
Method in brief: (§1)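 3-wk visual-criteria score after one water-surface dose. Emulsion formulation, water-diluted to set rate; applied at 1–2 leaf stage; alluvial soil, 4 cm standing water; seeds co-sown; greenhouse 25–30° C.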

oval-leafed pondweed = test: Test Example 2: herbicidal activity, application during weed generation under submerged conditions (Table 17, symbol C); type: in vivo, oval-leafed pondweed (Monochoria vaginalis); conditions: AAH 320 g/ha; application during weed generation, submerged conditions
Method in brief: as §1

barnyard grass [3] = test: Test Example 3: herbicidal effect by foliage application, Wagner pot (Table 18, symbol H); type: in vivo, barnyard grass (Echinochloa crus-galli); conditions: for herbicidal effect on H: barnyard grass: amount of applied herbicide 320 g/ha; for herbicidal effect on barnyard grass (H): 320 g/ha
Method in brief: (§2)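 Plants were sown in alluvial soil held under 0.1–0.5 cm standing water and grown 14 days in a greenhouse at 25–30 °C. An emulsifiable formulation, water-diluted to the set dose, was then sprayed onto the foliage, and effects were scored three weeks later using previously defined criteria.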

Chinese sprangletop = test: Test Example 3: herbicidal effect by foliage application, Wagner pot (Table 18, symbol D); type: in vivo, chinese sprangletop (Leptochloa chinensis); conditions: for herbicidal effect on D: Chinese sprangletop: amount of applied herbicide 320 g/ha; for herbicidal effect on Chinese sprangletop (D): 320 g/ha
Method in brief: as §2

green foxtail [4] = test: Test Example 4: herbicidal effect by soil treatment (Table 19, symbol G); type: in vivo, green foxtail (Setaria viridis); conditions: amount of applied herbicide 320 g/ha
Method in brief: (§3)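 In this soil treatment, the formulated compound reached the seeds only through the soil: seeds were buried about 1.5 cm deep in sterilized diluvial soil, then the diluted emulsion was sprayed over the surface. After three weeks at 25° C. to 30° C. in a greenhouse, effects were graded on criteria from an earlier test.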

windgrass [5] = test: Test Example 4: herbicidal effect by soil treatment (Table 19, symbol L); type: in vivo, windgrass (Apera spica-venti); conditions: amount of applied herbicide 320 g/ha
Method in brief: as §3

velvetleaf [6] = test: Test Example 4: herbicidal effect by soil treatment (Table 19, symbol M); type: in vivo, velvetleaf (Abutilon theophrasti); conditions: amount of applied herbicide 320 g/ha
Method in brief: as §3

redroot pigweed [7] = test: Test Example 4: herbicidal effect by soil treatment (Table 19, symbol N); type: in vivo, redroot pigweed (Amaranthus retroflexus); conditions: amount of applied herbicide 320 g/ha
Method in brief: as §3

green foxtail [8] = test: Test Example 5: herbicidal effect by foliage application, plastic box (Table 20, symbol G); type: in vivo, green foxtail (Setaria viridis); conditions: 320 g/ha; for G: green foxtail, herbicidal effect grade: foliage application, three weeks after application; for herbicidal effect on G: green foxtail (evaluation grade 0-5): foliage application after 14-day growth, evaluated three weeks after application
Method in brief: (§4)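 Plants were sown into sterilized diluvial soil under about 1.5 cm cover and kept in a greenhouse at 25° C. to 30° C. Fourteen days on, foliage received an even spray of the diluted emulsion. Herbicidal or crop effect was judged three weeks afterwards.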

barnyard grass [9] = test: Test Example 5: herbicidal effect by foliage application, plastic box (Table 20, symbol H); type: in vivo, barnyard grass (Echinochloa crus-galli); conditions: 320 g/ha; for H: barnyard grass, herbicidal effect grade: foliage application, three weeks after application; for herbicidal effect on H: barnyard grass (evaluation grade 0-5): foliage application after 14-day growth, evaluated three weeks after application
Method in brief: as §4

wild oat = test: Test Example 5: herbicidal effect by foliage application, plastic box (Table 20, symbol I); type: in vivo, wild oat (Avena fatua); conditions: 320 g/ha; for I: wild oat, herbicidal effect grade: foliage application, three weeks after application; for herbicidal effect on I: wild oat (evaluation grade 0-5): foliage application after 14-day growth, evaluated three weeks after application
Method in brief: as §4

windgrass [10] = test: Test Example 5: herbicidal effect by foliage application, plastic box (Table 20, symbol L); type: in vivo, windgrass (Apera spica-venti); conditions: foliage application, 320 g/ha, three weeks after application
Method in brief: as §4

velvetleaf [11] = test: Test Example 5: herbicidal effect by foliage application, plastic box (Table 20, symbol M); type: in vivo, velvetleaf (Abutilon theophrasti); conditions: 320 g/ha; for M: velvetleaf, herbicidal effect grade: foliage application, three weeks after application; for herbicidal effect on M: velvetleaf (evaluation grade 0-5): foliage application after 14-day growth, evaluated three weeks after application
Method in brief: as §4

redroot pigweed [12] = test: Test Example 5: herbicidal effect by foliage application, plastic box (Table 20, symbol N); type: in vivo, redroot pigweed (Amaranthus retroflexus); conditions: 320 g/ha; for N: redroot pigweed, herbicidal effect grade: foliage application, three weeks after application; for herbicidal effect on N: redroot pigweed (evaluation grade 0-5): foliage application after 14-day growth, evaluated three weeks after application
Method in brief: as §4

lambsquarters = test: Test Example 5: herbicidal effect by foliage application, plastic box (Table 20, symbol O); type: in vivo, lambsquarters (Chenopodium album); conditions: 320 g/ha; for O: lambsquarters, herbicidal effect grade: foliage application, three weeks after application; for herbicidal effect on O: lambsquarters (evaluation grade 0-5): foliage application after 14-day growth, evaluated three weeks after application
Method in brief: as §4

COc1ccccc1-c1sc2cc(F)ccc2c1-c1c(OC(=O)c2ccco2)c(C)nn(C)c1=O [3-023]
Herbicidal effect, A: late watergrass (late watergrass [1]): 3 (Herbicidal rate of 40% or more and less than 70%)
herbicidal effect rating, A: late watergrass (late watergrass [2]): 2 (Herbicidal rate of 20% or more and less than 40%)
herbicidal effect rating, C: oval-leafed pondweed (oval-leafed pondweed): 4 (Herbicidal rate of 70% or more and less than 90%)
herbicidal effect on H: barnyard grass (barnyard grass [3]): 5 (Herbicidal rate of 90% or more (almost completely withered))
herbicidal effect on D: Chinese sprangletop (Chinese sprangletop): 3 (Herbicidal rate of 40% or more and less than 70%)
herbicidal effect, G: green foxtail (green foxtail [4]): 4 (Herbicidal rate of 70% or more and less than 90%)
herbicidal effect, L: windgrass (windgrass [5]): 3 (Herbicidal rate of 40% or more and less than 70%)
herbicidal effect, M: velvetleaf (velvetleaf [6]): 0 (Herbicidal rate of 5% or less (almost no effect))
herbicidal effect, N: redroot pigweed (redroot pigweed [7]): 5 (Herbicidal rate of 90% or more (almost completely withered))
G: green foxtail, herbicidal effect grade (green foxtail [8]): 5 (Herbicidal rate of 90% or more (almost completely withered))
H: barnyard grass, herbicidal effect grade (barnyard grass [9]): 5 (Herbicidal rate of 90% or more (almost completely withered))
I: wild oat, herbicidal effect grade (wild oat): 4 (Herbicidal rate of 70% or more and less than 90%)
L: windgrass, herbicidal effect grade (windgrass [10]): 5 (Herbicidal rate of 90% or more (almost completely withered))
M: velvetleaf, herbicidal effect grade (velvetleaf [11]): 5 (Herbicidal rate of 90% or more (almost completely withered))
N: redroot pigweed, herbicidal effect grade (redroot pigweed [12]): 5 (Herbicidal rate of 90% or more (almost completely withered))
O: lambsquarters, herbicidal effect grade (lambsquarters): 3 (Herbicidal rate of 40% or more and less than 70%)

COc1ccccc1-c1sc2cc(F)ccc2c1-c1c(OS(=O)(=O)c2ccc(C)cc2)c(C)nn(C)c1=O [3-027]
Herbicidal effect, A: late watergrass (late watergrass [1]): 2 (Herbicidal rate of 20% or more and less than 40%)
herbicidal effect rating, A: late watergrass (late watergrass [2]): 3 (Herbicidal rate of 40% or more and less than 70%)
herbicidal effect rating, C: oval-leafed pondweed (oval-leafed pondweed): 3 (Herbicidal rate of 40% or more and less than 70%)
herbicidal effect on H: barnyard grass (barnyard grass [3]): 5 (Herbicidal rate of 90% or more (almost completely withered))
herbicidal effect on D: Chinese sprangletop (Chinese sprangletop): 3 (Herbicidal rate of 40% or more and less than 70%)
G: green foxtail, herbicidal effect grade (green foxtail [4]): 0 (Herbicidal rate of 5% or less (almost no effect))
L: windgrass, herbicidal effect grade (windgrass [5]): 0 (Herbicidal rate of 5% or less (almost no effect))
M: velvetleaf, herbicidal effect grade (velvetleaf [6]): 0 (Herbicidal rate of 5% or less (almost no effect))
N: redroot pigweed, herbicidal effect grade (redroot pigweed [7]): 0 (Herbicidal rate of 5% or less (almost no effect))
G: green foxtail, herbicidal effect grade (green foxtail [8]): 5 (Herbicidal rate of 90% or more (almost completely withered))
H: barnyard grass, herbicidal effect grade (barnyard grass [9]): 5 (Herbicidal rate of 90% or more (almost completely withered))
I: wild oat, herbicidal effect grade (wild oat): 3 (Herbicidal rate of 40% or more and less than 70%)
L: windgrass, herbicidal effect grade (windgrass [10]): 5 (Herbicidal rate of 90% or more (almost completely withered))
M: velvetleaf, herbicidal effect grade (velvetleaf [11]): 5 (Herbicidal rate of 90% or more (almost completely withered))
N: redroot pigweed, herbicidal effect grade (redroot pigweed [12]): 5 (Herbicidal rate of 90% or more (almost completely withered))
O: lambsquarters, herbicidal effect grade (lambsquarters): 3 (Herbicidal rate of 40% or more and less than 70%)

C=C(C)C(=O)Oc1c(C)nn(C)c(=O)c1-c1c(-c2ccccc2OC)sc2cc(OC)ccc12 [3-155]
Herbicidal effect, A: late watergrass (late watergrass [1]): 5 (Herbicidal rate of 90% or more (almost completely withered))
herbicidal effect rating, A: late watergrass (late watergrass [2]): 5 (Herbicidal rate of 90% or more (almost completely withered))
herbicidal effect rating, C: oval-leafed pondweed (oval-leafed pondweed): 5 (Herbicidal rate of 90% or more (almost completely withered))
herbicidal effect on barnyard grass (H) (barnyard grass [3]): 5 (Herbicidal rate of 90% or more (almost completely withered))
herbicidal effect on Chinese sprangletop (D) (Chinese sprangletop): 4 (Herbicidal rate of 70% or more and less than 90%)
Herbicidal effect by soil treatment, G: green foxtail (green foxtail [4]): 0 (Herbicidal rate of 5% or less (almost no effect))
Herbicidal effect by soil treatment, L: windgrass (windgrass [5]): 4 (Herbicidal rate of 70% or more and less than 90%)
Herbicidal effect by soil treatment, M: velvetleaf (velvetleaf [6]): 0 (Herbicidal rate of 5% or less (almost no effect))
Herbicidal effect by soil treatment, N: redroot pigweed (redroot pigweed [7]): 4 (Herbicidal rate of 70% or more and less than 90%)
herbicidal effect on G: green foxtail (evaluation grade 0-5) (green foxtail [8]): 5 (Herbicidal rate of 90% or more (almost completely withered))
herbicidal effect on H: barnyard grass (evaluation grade 0-5) (barnyard grass [9]): 5 (Herbicidal rate of 90% or more (almost completely withered))
herbicidal effect on I: wild oat (evaluation grade 0-5) (wild oat): 3 (Herbicidal rate of 40% or more and less than 70%)
herbicidal effect on M: velvetleaf (evaluation grade 0-5) (velvetleaf [11]): 5 (Herbicidal rate of 90% or more (almost completely withered))
herbicidal effect on N: redroot pigweed (evaluation grade 0-5) (redroot pigweed [12]): 5 (Herbicidal rate of 90% or more (almost completely withered))
herbicidal effect on O: lambsquarters (evaluation grade 0-5) (lambsquarters): 4 (Herbicidal rate of 70% or more and less than 90%)

CCCC(=O)Oc1c(C)nn(C)c(=O)c1-c1c(-c2ccc(OC)cc2)sc2c(F)cccc12 [4-006]
Herbicidal effect, A: late watergrass (late watergrass [1]): 3 (Herbicidal rate of 40% or more and less than 70%)
herbicidal effect rating, A: late watergrass (late watergrass [2]): 3 (Herbicidal rate of 40% or more and less than 70%)
herbicidal effect rating, C: oval-leafed pondweed (oval-leafed pondweed): 2 (Herbicidal rate of 20% or more and less than 40%)
herbicidal effect on barnyard grass (H) (barnyard grass [3]): 5 (Herbicidal rate of 90% or more (almost completely withered))
herbicidal effect on Chinese sprangletop (D) (Chinese sprangletop): 5 (Herbicidal rate of 90% or more (almost completely withered))
Herbicidal effect by soil treatment, G: green foxtail (green foxtail [4]): 4 (Herbicidal rate of 70% or more and less than 90%)
Herbicidal effect by soil treatment, L: windgrass (windgrass [5]): 0 (Herbicidal rate of 5% or less (almost no effect))
Herbicidal effect by soil treatment, M: velvetleaf (velvetleaf [6]): 1 (Herbicidal rate of 5% or more and less than 20%)
Herbicidal effect by soil treatment, N: redroot pigweed (redroot pigweed [7]): 4 (Herbicidal rate of 70% or more and less than 90%)
herbicidal effect on G: green foxtail (evaluation grade 0-5) (green foxtail [8]): 4 (Herbicidal rate of 70% or more and less than 90%)
herbicidal effect on H: barnyard grass (evaluation grade 0-5) (barnyard grass [9]): 4 (Herbicidal rate of 70% or more and less than 90%)
herbicidal effect on I: wild oat (evaluation grade 0-5) (wild oat): 0 (Herbicidal rate of 5% or less (almost no effect))
herbicidal effect on M: velvetleaf (evaluation grade 0-5) (velvetleaf [11]): 5 (Herbicidal rate of 90% or more (almost completely withered))
herbicidal effect on N: redroot pigweed (evaluation grade 0-5) (redroot pigweed [12]): 5 (Herbicidal rate of 90% or more (almost completely withered))
herbicidal effect on O: lambsquarters (evaluation grade 0-5) (lambsquarters): 3 (Herbicidal rate of 40% or more and less than 70%)
